Values of other authors as cited in US12006297B2, “Antibacterial activity of functionalized dihydropyrimidines” (WiSys Technology Foundation, Inc., priority 2021, dated 2024).

Experiments:
MRSA = details: versus oxacillin and erythromycin
DHFR = DHFR (Staphylococcus aureus, UniProt P0A017)
Chain of DHFR (P0A017 whole entry): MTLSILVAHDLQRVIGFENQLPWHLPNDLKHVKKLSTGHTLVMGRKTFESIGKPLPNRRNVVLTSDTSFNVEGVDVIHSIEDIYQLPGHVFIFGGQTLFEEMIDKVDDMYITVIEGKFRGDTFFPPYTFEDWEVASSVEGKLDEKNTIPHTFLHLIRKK

**Q.** What does the source list for `COc1cc(Cc2cnc(N)nc2N)c2c(c1OC)OC(C1CC1)C=C2` (racemic) [Iclaprim]?
**A.** side effects (skin infections; clinical trials): mild to moderate side effects; efficacy versus vancomycin (skin infections; control of skin infections, phase 2 and 3 clinical trials): non-inferiority

**Q.** Which results are given for `CCOC(=O)C1=C(CC)NC(N)=NC1c1cc(Cl)cc(Cl)c1O` (stereo not shown) [HAK-22, emmacin]?
**A.** MRSA growth inhibition compared with approved antibiotics (MRSA): inhibiting the growth of MRSA at concentrations lower than approved antibiotics; mechanism of DHFR inhibition (DHFR): unique allosteric uncompetitive mechanism
